The record followed here is US8501752B2, “Methods for treating cancer and other pathological proliferating disorders by inhibiting mitosis using pyrrolo[2,3-d]pyrimidines” (Duquesne University of the Holy Ghost, priority 2005, dated 2013).

Molecules are shown by their SMILES.

The test system of data set [1] is T24 human bladder carcinoma cells. As to the kind of experiment: Cytotoxicity, T24 cells. The class given is cell-based. As to conditions: mean ± SEM for 3 experiments.
A further data set relates to OVCAR-4. Kind of data set: NCI IVCLSP growth inhibition (SRB), OVCAR-4. The class given is cell-based, human. As to conditions: 48 h drug incubation. On the procedure: (§1) FIG. 1 presents nine compounds that were tested using the National Cancer Institute (NCI) 60 human tumor cell lines. The cells lines, which represent leukemia, melanoma, and cancers of the lung, colon, brain, ovary, breast, prostate, and kidney, are listed in Table 1.
(§2) Compounds 1-9 were tested according to the NCI Developmental Therapeutics Program (DTP) In Vitro Cell Line Screening Project (IVCLSP). […] Methodology for testing under the IVCLSP is as follows: The human tumor cell lines of the cancer screening panel are grown in RPMI 1640 medium containing 5% fetal bovine serum and 2 mM L-glutamine. […]
(§3) Following drug addition, the plates are incubated for an additional 48 h at 37° C., 5% CO2, 95% air, and 100% relative humidity. […] Bound stain is subsequently solubilized with 10 mM trizma base, and the absorbance is read on an automated plate reader at a wavelength of 515 nm. […] Using the seven absorbance measurements [time zero, (Tz), control growth, (C), and test growth in the presence of drug at the five concentration levels (Ti)], the percentage growth is calculated at each of the drug concentrations levels. Percentage growth inhibition is calculated as: [(Ti−Tz)/(C−Tz)]×100 for concentrations for which Ti>/=Tz [(Ti−Tz)/Tz]×100 for concentrations for which Ti<Tz.
(§4) Three dose response parameters are calculated for each experimental agent. […]

Another data set has as its system SW-620. As to the kind of experiment: NCI IVCLSP growth inhibition (SRB), SW-620. It is filed as cell-based, human. As to conditions: 48 h drug incubation. How it is done:
as §1, §2, §3, §4

For another data set, the system named is RXF 393. As to the kind of experiment: NCI IVCLSP growth inhibition (SRB), RXF 393. It is filed as cell-based, human. As to conditions: 48 h drug incubation. How it is done: as §1, §2, §3, §4
The subject of data set [2] is HL-60 human promyelocytic leukemia cells. As to the kind of experiment: Flow cytometric cell cycle phase distribution. The class given is cell-based. As to conditions: 24 hours treatment. On the procedure:
Flow cytometric analyses were used to assess the effects of Compound 1 and various antimicrotubule drugs on the cell cycle phase distributions of HL-60 human promyelocytic leukemia cells. The percentage of cells in the G2/M phases were increased approximately 2-fold by treatment of the cells for 24 hours with either TAXOL (paclitaxel), vinblastine, colchicine, or Compound 1.
Background: Flow cytometry measures light scatter and fluorescence of single cells or particles in a stream.

For the next data set, the system named is EKVX. As to the kind of experiment: NCI IVCLSP growth inhibition (SRB), EKVX. It is filed as cell-based, human. As to conditions: 48 h drug incubation. How it is done: as §1, §2, §3, §4
For a further data set, the system named is RPM1-8226. As to the kind of experiment: NCI IVCLSP growth inhibition (SRB), RPM1-8226. The class given is cell-based, human. As to conditions: 48 h drug incubation. How it is done: as §1, §2, §3, §4
The next data set relates to LOX IMVI. As to the kind of experiment: NCI IVCLSP growth inhibition (SRB), LOX IMVI. The class given is cell-based, human. As to conditions: 48 h drug incubation. How it is done: as §1, §2, §3, §4
In the next data set the test system is TKIO. As to the kind of experiment: NCI IVCLSP growth inhibition (SRB), TKIO. As to conditions: 48 h drug incubation. The class given is cell-based, human. How it is done: as §1, §2, §3, §4
The test system of a further data set is NCI-H322M. As to the kind of experiment: NCI IVCLSP growth inhibition (SRB), NCI-H322M. As to conditions: 48 h drug incubation. It is filed as cell-based, human. On the procedure:
as §1, §2, §3, §4

Usually IC50 stands for the concentration needed to halve the response being measured. Higher therefore signals a need for much substance. By GI50 is commonly meant the concentration that inhibits growth by half. With `COc1cc(CCc2cn(Cc3ccccc3)c3nc(N)nc(C)c23)cc(OC)c1OC` [Compound 1], half-maximal inhibition in data set [1] (IC50) required 280 ± 100 nM. The GI50 in the data set with OVCAR-4 came out at 821 nM; in the data set on SW-620, 236 nM; in the data set with RXF 393, 134 nM; in the data set on EKVX, 424 nM; with RPM1-8226, 439 nM; in the data set on LOX IMVI, 250 nM. In addition, the GI50 with TKIO was determined as 961 nM; in the data set with NCI-H322M, 581 nM. In [2] (HL-60), the “increase of the percentage of cells in the G2/M phases” value was “approximately 2 fold”. Besides, in data set [2] (percentage of HL-60 cells), the “cell cycle distribution, G2/M” value was 9.7 ± 0.4. The “cell cycle distribution, G9/G1” value in [2] (percentage of HL-60 cells) was 80.0 ± 2.4. Moreover, the “cell cycle distribution, S” value in data set [2] (percentage of HL-60 cells) came to 10.3 ± 2.0.
